Structures can show the parent of a compound that is named as a salt.
Experiments:
Format in all cases: physicochemical
[1] = Variable Temperature X-Ray Powder Diffraction (VT-XRPD); design: key: Crystalline Form 2 di(hydrogen sulfate) trihydrate; Crystalline Form 5 di(hydrogen sulfate); PC: Poorly Crystalline; settings: second Heating, hold 30 min
Procedure: (§1) In the examples below, VT-XRPD analysis was carried out on a Philips X'Pert Pro Multipurpose diffractometer equipped with a temperature chamber. The samples were scanned between 4 and 36° 2θ using Cu K radiation (α1 λ=1.54060 Å; α2=1.54443 Å; β=1.39225 Å; α1: α2 ratio=0.5; most, if not all, B radiation is removed from the beam using an X-ray mirror) running in Bragg-Brentano geometry (step size 0.008° 2θ) using 40 kV/40 mA generator settings. Measurements were carried out from ambient temperature to an upper limit of 250° C., with a final measurement taken after cooling.
as §1, with “VT-XRPD” for “In the examples below, VT-XRPD”, “Å; β2=1.39225” for “Å; β=1.39225”, “Å; α1:α2” for “Å; α1: α2”, “all, β” for “all, B”

[2] = thermodynamic solubility in 8 aqueous media (Example 19); settings: for solubility in aqueous media: 24 hours at 37° C.
Procedure: UPLC System—UPLC: ThermoFisher Vanquish, Detector 1: UV detector set at 266 nm
UPLC Conditions— • Auto sampler temp.: RT • Column: Agilent Eclipse Plus C18 HD (50×2.1 mm; 1.8 μm) • Column temp: 40° C. • Gradient: Mobile phase A: 10 mM ammonium acetate in water • Mobile phase B: Acetonitrile • Flow: 0.6 mL/min • Gradient:
• Concentration: ca. 1.0 mg/mL • Solvent: ACN/water 50:50 • Injection volume: 1 μl • Retention time: 2.9 min
Example 19-Solubility of Crystalline Form 2 Compound 1 di(hydrogen sulfate) trihydrate: The thermodynamic solubility of crystalline Form 2 Compound 1 di(hydrogen sulfate) trihydrate was determined in 8 aqueous media (0.1M HCl, Phthalate buffer pH 3, acetate buffer pH 4.2, phosphate buffer pH 7, phosphate buffer pH 7.4, alkaline borate buffer pH 9.0, purified water EP/USP and phosphate water pH 12). Buffer solutions were prepared according to the United States Pharmacopeia USP 43 with modified buffer strength. Suspensions were prepared by addition of a single aliquot of the aqueous medium to the crystalline Form 2 Compound 1 di(hydrogen sulfate) trihydrate. The pH was titrated to the targeted pH with 1M NaOH. After incubation for 24 hours at 37° C., the pH was measured, and the mother liquors were filtered and analyzed by UPLC to determine the concentration of the free base. The residual solids after the solubility determination were ambient- and vacuum dried and analyzed by HT-XRPD.

[3] = solution stability in 1-propanol:water (80:20% v/v) at 50° C. (Example 8)
Procedure: Example 8-Solution Stability of Compound 1 di(hydrogen sulfate): As per Table 44, weighed amounts (mg) of Compound 1 (free base) were added to 5×1.5 mL screw cap vials. Sulfuric acid equivalents were added to each vial as solutions in volumes of 1-propanol: water (80:20% v/v) as further set forth in Table 44. Salt formation occurred in situ. The target free base concentration was about 186 mg/mL. The solutions were stirred at 50° C. for about 24 hours. […] Subsamples (50 μL) of the solutions were extracted for HPLC analysis after 2, 4, 6, and 23 hours of stirring at 50° C.

[4] = 1-propanol:water (80:20% v/v), 50° C., Acid Equiv. 1.90
[5] = 1-propanol:water (80:20% v/v), 50° C., Acid Equiv. 1.95
[6] = 1-propanol:water (80:20% v/v), 50° C., Acid Equiv. 2.00
[7] = 1-propanol:water (80:20% v/v), 50° C., Acid Equiv. 2.05
[8] = 1-propanol:water (80:20% v/v), 50° C., Acid Equiv. 2.10

With `CCCN1CCNCCCNC(=O)c2cc(OC)c(OC)c(c2)OCCC[C@@H](OC(=O)c2cc(OC)c(OC)c(OC)c2)CC1` the “VT-XRPD Results” value ([1]; 120° C.) was 5, the “VT-XRPD Results” value ([1]; 130° C.) was 5 and the “solubility compared with the free base” value [2] was “more soluble than the free base”. For the same molecule, the “solubility in aqueous media” value ([2]; high pH (12.0)) was “very slightly soluble”, the “solubility in aqueous media” value ([2]; low pH values (<3.0)) was “freely soluble” and the “solubility in aqueous media” value ([2]; pH 4.2) was “soluble”. The “solubility in aqueous media” value ([2]; pH 7.0) was “slightly soluble”.
For `COc1cc(C(=O)O[C@@H]2CCCOc3cc(cc(OC)c3OC)C(=O)NCCCN3CCCN(CC2)CC3)cc(OC)c1OC` [Compound 1 di(hydrogen sulfate)], the “lowering of purity at the T23h timepoint versus earlier samples” value ([3]; 1-propanol:water (80:20% v/v), 50° C.) was “about 0.8 % area”, the solution purity ([3]; 1-propanol:water (80:20% v/v), 50° C., 2, 4, 6 and 23 hours) was 98.7-99.7 % area and the “HPLC Conc. T2 h” value [3, 4] was 176 mg/mL. For the same molecule, the “HPLC Conc. T4 h” value [3, 4] was 167 mg/mL, the “HPLC Conc. T6 h” value [3, 4] was 183 mg/mL and the “HPLC Conc. T23 h” value [3, 4] was 164 mg/mL. The “HPLC Purity T2 h” value [3, 4] was 99.70 % area, the “HPLC Purity T4 h” value [3, 4] was 99.67 % area and the “HPLC Purity T6 h” value [3, 4] was 99.58 % area. The “HPLC Purity T23 h” value [3, 4] was 98.94 % area, the “HPLC Conc. T2 h” value [3, 5] was 175 mg/mL and the “HPLC Conc. T4 h” value [3, 5] was 169 mg/mL. The “HPLC Conc. T6 h” value [3, 5] was 179 mg/mL, the “HPLC Conc. T23 h” value [3, 5] was 162 mg/mL and the “HPLC Purity T2 h” value [3, 5] was 99.60 % area. For the same molecule, the “HPLC Purity T4 h” value [3, 5] was 99.61 % area, the “HPLC Purity T6 h” value [3, 5] was 99.53 % area and the “HPLC Purity T23 h” value [3, 5] was 99.00 % area. For the same molecule, the “HPLC Conc. T2 h” value [3, 6] was 170 mg/mL, the “HPLC Conc. T4 h” value [3, 6] was 165 mg/mL and the “HPLC Conc. T6 h” value [3, 6] was 169 mg/mL. The “HPLC Conc. T23 h” value [3, 6] was 170 mg/mL, the “HPLC Purity T2 h” value [3, 6] was 99.66 % area and the “HPLC Purity T4 h” value [3, 6] was 99.58 % area. For the same molecule, the “HPLC Purity T6 h” value [3, 6] was 99.43 % area, the “HPLC Purity T23 h” value [3, 6] was 98.78 % area and the “HPLC Conc. T2 h” value [3, 7] was 166 mg/mL. For the same molecule, the “HPLC Conc. T4 h” value [3, 7] was 165 mg/mL, the “HPLC Conc. T6 h” value [3, 7] was 173 mg/mL and the “HPLC Conc. T23 h” value [3, 7] was 165 mg/mL. For the same molecule, the “HPLC Purity T2 h” value [3, 7] was 99.68 % area, the “HPLC Purity T4 h” value [3, 7] was 99.52 % area and the “HPLC Purity T6 h” value [3, 7] was 99.42 % area. For the same molecule, the “HPLC Purity T23 h” value [3, 7] was 98.85 % area, the “HPLC Conc. T2 h” value [3, 8] was 166 mg/mL and the “HPLC Conc. T4 h” value [3, 8] was 164 mg/mL. For the same molecule, the “HPLC Conc. T6 h” value [3, 8] was 168 mg/mL, the “HPLC Conc. T23 h” value [3, 8] was 167 mg/mL and the “HPLC Purity T2 h” value [3, 8] was 99.60 % area. For the same molecule, the “HPLC Purity T4 h” value [3, 8] was 99.62 % area, the “HPLC Purity T6 h” value [3, 8] was 99.47 % area and the “HPLC Purity T23 h” value [3, 8] was 98.89 % area. For the same molecule, the overall solution stability ([3]; 1-propanol:water solvent system at 50° C.) was “substantial stability” and the “concentration of the solutions by HPLC” value ([3]; input free base concentration 186 mg/mL, 50° C.) was 162000 to 183000 µg/mL.
